Laboratory results from US6716833B2, “Acetylenic α-amino acid-based sulfonamide hydroxamic acid tace inhibitors” (priority 1999, dated 2004).
Like-named read-outs stand apart in the source and are kept apart here.

Assays:
Format in all cases: biochemical
[1] = target: MMP-13 (Homo sapiens, UniProt P45452); test: MMP-13 inhibition (thiopeptide or fluorescent peptide substrate); conditions: read-out: MMP-13 IC50
[2] = target: TNF-α converting enzyme (TACE) (Homo sapiens, UniProt P78536); test: TACE inhibition (fluorescent peptidyl substrate)
[3] = target: T1, MMP-1 (Homo sapiens, UniProt P03956); test: MMP-1 inhibition (thiopeptide or fluorescent peptide substrate)
T1 sequence (P03956 100-469): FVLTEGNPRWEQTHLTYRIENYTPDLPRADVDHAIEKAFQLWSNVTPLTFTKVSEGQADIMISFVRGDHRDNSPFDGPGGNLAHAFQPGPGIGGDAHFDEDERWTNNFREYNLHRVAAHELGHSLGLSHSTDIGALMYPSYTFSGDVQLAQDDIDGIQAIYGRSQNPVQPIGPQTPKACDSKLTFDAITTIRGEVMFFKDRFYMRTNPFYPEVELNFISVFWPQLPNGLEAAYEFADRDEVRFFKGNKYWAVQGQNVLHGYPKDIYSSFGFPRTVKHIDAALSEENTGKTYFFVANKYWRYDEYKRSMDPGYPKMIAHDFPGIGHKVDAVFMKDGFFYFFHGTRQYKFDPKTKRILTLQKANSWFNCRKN

Chain of TNF-α converting enzyme (TACE) (P78536 215-824, species assumed): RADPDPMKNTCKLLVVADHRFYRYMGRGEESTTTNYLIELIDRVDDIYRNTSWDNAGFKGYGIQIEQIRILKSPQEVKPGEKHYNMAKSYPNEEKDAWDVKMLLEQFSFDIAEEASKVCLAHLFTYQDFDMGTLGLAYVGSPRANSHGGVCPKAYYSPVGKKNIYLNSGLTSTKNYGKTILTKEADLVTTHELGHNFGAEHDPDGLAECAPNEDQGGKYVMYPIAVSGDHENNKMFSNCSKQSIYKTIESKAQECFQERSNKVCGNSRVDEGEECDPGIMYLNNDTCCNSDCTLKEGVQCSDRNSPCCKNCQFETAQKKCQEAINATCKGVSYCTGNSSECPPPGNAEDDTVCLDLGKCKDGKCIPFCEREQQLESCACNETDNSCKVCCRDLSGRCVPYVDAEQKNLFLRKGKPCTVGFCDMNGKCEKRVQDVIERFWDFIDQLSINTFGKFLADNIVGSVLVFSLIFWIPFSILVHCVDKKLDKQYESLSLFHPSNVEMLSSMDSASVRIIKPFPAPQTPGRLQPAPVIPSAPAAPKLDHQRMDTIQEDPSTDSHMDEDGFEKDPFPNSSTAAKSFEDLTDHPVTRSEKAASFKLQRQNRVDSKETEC

Row | SMILES | IC50 [1] [nM] | IC50 ([2]; read-out: TACE IC50) [nM] | IC50 ([3]; read-out: MMP-1 IC50) [nM] | also measured
1 | CC1(C)SCCN(S(=O)(=O)c2ccc(OCC#CCCCCN)cc2)[C@H]1C(=O)NO [Example 253] |  |  |  | IC50 ([1]; Table 10): 7.3 nM; IC50 ([2]; Table 10, read-out: TACE IC50): 40 nM; IC50 ([3]; Table 10, read-out: MMP-1 IC50): 92 nM
2 | C#CC#CCOc1ccc(S(=O)(=O)N2CCSC(C)(C)[C@@H]2C(=O)NO)cc1 [Example 263] |  |  |  | IC50 ([1]; Table 10): 11 nM; IC50 ([2]; Table 10, read-out: TACE IC50): 42 nM; IC50 ([3]; Table 10, read-out: MMP-1 IC50): 5.7 nM
3 | CC#CCOc1ccc(S(=O)(=O)N2[C@H](C)CSC(C)(C)[C@@H]2C(=O)NO)cc1 [Example 271, (3S,5R)-4-{[4-(2-Butynyloxy)phenyl]sulfonyl}-N-hydroxy-2,2,5-trimethyl-3-thiomorpholinecarboxamide] |  |  |  | IC50 ([1]; Table 11): 88 nM; IC50 ([2]; Table 11, read-out: TACE IC50): 45 nM; IC50 ([3]; Table 11, read-out: MMP-1 IC50): 47 nM
4 | CC#CCOc1ccc(S(=O)(=O)N(C)C(CSCc2cccnc2)C(=O)NO)cc1 (centres unmarked) [Example 155, 2-[(4-but-2-ynyloxy-Benenesulfonyl)-methyl-amino]-N-hydroxy-3-(pyridin-3-ylmethylsulfanyl)-butyramide] | 4.8 |  |  | 
5 | CC#CCOc1ccc(S(=O)(=O)N2C[C@H](CC(=O)OC(C)(C)C)SC(C)(C)[C@@H]2C(=O)NO)cc1 [Example 277, tert-Butyl{(2S,5S)-4-{[4-(2-butynyloxy)phenyl]sulfonyl}-5-[(hydroxyamino)carbonyl]-6,6-dimethylthiomorpholinyl}acetate] |  |  |  | IC50 ([1]; Table 11): 7.6 nM; IC50 ([2]; Table 11, read-out: TACE IC50): 234 nM; IC50 ([3]; Table 11, read-out: MMP-1 IC50): 7.8 nM
6 | CC#CCOc1ccc(S(=O)(=O)N2C[C@H](CC(=O)O)SC(C)(C)[C@@H]2C(=O)NO)cc1 [Example 278, [(2S,5S)-4-{[4-(2-Butynyloxy)phenyl]sulfonyl}-5-[(hydroxyamino)carbonyl]-6,6-dimethylthiomorpholinyl}acetic Acid] |  |  |  | IC50 ([1]; Table 11): 6.7 nM; IC50 ([2]; Table 11, read-out: TACE IC50): 20 nM; IC50 ([3]; Table 11, read-out: MMP-1 IC50): 17 nM
7 | CC#CCOc1ccc(S(=O)(=O)NC(C(=O)NO)c2ccc(OCCOCCOC)cc2)cc1 (centres unmarked) [Example 210, 2-({[4-(2-Butynyloxy)phenyl]sulfonyl}amino)-N-hydroxy-2-{4-[2-(2-methoxyethoxy)ethoxy]phenyl}acetamide] | 278 | 17 | > 10000 | 
8 | CC#CCOc1ccc(S(=O)(=O)NC(C(=O)NO)c2ccc(OCCNC)cc2)cc1 (centres unmarked) [Example 204] |  |  |  | IC50 ([3]; MMP-1 IC50): ~10000 nM
9 | CC#CCOc1ccc(S(=O)(=O)N2CCN(C(=O)OC(C)(C)C)CCC2C(=O)NO)cc1 (centres unmarked) [Example 291, tert-Butyl 4-{[4-(2-Butynyloxy)phenyl]sulfonyl}-5[(hydroxyamino)carbonyl]-1,4-diazepane-1-carboxylate] |  | 74 | 92 | 
10 | CC#CCOc1ccc(S(=O)(=O)N[C@H](CCCCNC(=O)Cc2ccccc2)C(=O)NO)cc1 [Example 363, (2R)-2-({[4-(But-2-ynyloxy)phenyl]sulfonyl}amino)-N-hydroxy-6-[(2-phenylacetyl)amino]hexanamide] |  |  |  | IC50 ([2]; IC 50 nM (In Vitro Inhibition of TACE), Table 15): 3.39 nM

The next lines start with results.

Row | IC50 [1] [nM] | IC50 ([2]; read-out: TACE IC50) [nM] | IC50 ([3]; read-out: MMP-1 IC50) [nM] | SMILES | also measured
11 | 112 | 53 | > 10000 | CC#CCOc1ccc(S(=O)(=O)NC(C(=O)NO)c2ccc(OCCN(C)C)cc2)cc1 (centres unmarked) [Example 207, 2-({[4-(2-Butynyloxy)phenyl]sulfonyl}amino){4-[2-(dimethylamino)ethoxy]phenyl}-N-hydroxyacetamide] | 
12 | 36 | 20 | 408 | CC#CCOc1ccc(S(=O)(=O)N2CCCSC[C@@H]2C(=O)NO)cc1 [Example 174] | 
13 | 230 | 69 | > 10000 | CC#CCOc1ccc(S(=O)(=O)NC(C(=O)NO)c2ccc(OCCc3scnc3C)cc2)cc1 (centres unmarked) [Example 208, 2-({[4-(2-Butynyloxy)phenyl]sulfonyl}amino)-N-hydroxy-2-{4-[2-(4-methyl-1,3-thiazol-5-yl)ethoxy]phenyl}acetamide] | 
14 | 50 | 28 | 1030 | CC#CCOc1ccc(S(=O)(=O)N2CCCS(=O)(=O)C[C@@H]2C(=O)NO)cc1 [Example 175] | 
15 | 146 | 24 | ~10000 | CC#CCOc1ccc(S(=O)(=O)NC(C(=O)NO)c2ccc(OCCN3CCCC3)cc2)cc1 (centres unmarked) [Example 205, 2-({[4-(2-Butynyloxy)phenyl]sulfonyl}amino)-N-hydroxy-2-{4-[2-(1-pyrrolidinyl)ethoxy]phenyl}acetamide] | 
